In the NIST ThermoML archive (doi:10.1021/je0602824):

Assay: xn = mol fraction of the nth substance listed
Conditions: 101 kPa, Liquid

CCn1cc[n+](C)c1.O=C([O-])C(F)(F)F [1-ethyl-3-methylimidazolium trifluoroacetate] + O
Conditions	mass density [kg/m3]	viscosity [mPa·s]
278.15 K, x2 = 0	1306.89	78
278.15 K, x2 = 0.2042	–	56
278.15 K, x2 = 0.205	1299.84	–
278.15 K, x2 = 0.3952	–	40
278.15 K, x2 = 0.3983	1291.27	–
278.15 K, x2 = 0.5808	1278	25
278.15 K, x2 = 0.7565	–	16
278.15 K, x2 = 0.7573	1248.38	–
278.15 K, x2 = 0.842	1216.87	–
278.15 K, x2 = 0.9256	1151.47	6
278.15 K, x2 = 0.9667	1086.88	–
278.15 K, x2 = 0.9912	1026.68	–
288.15 K, x2 = 0	1298.81	48
288.15 K, x2 = 0.2042	–	35
288.15 K, x2 = 0.205	1291.82	–
288.15 K, x2 = 0.3952	–	26
288.15 K, x2 = 0.3983	1283.25	–
288.15 K, x2 = 0.5808	1269.93	17
288.15 K, x2 = 0.7565	–	11
288.15 K, x2 = 0.7573	1240.21	–
288.15 K, x2 = 0.842	1208.86	–
288.15 K, x2 = 0.9256	1144.67	5
288.15 K, x2 = 0.9667	1082.51	–
288.15 K, x2 = 0.9912	1024.93	–
298.15 K, x2 = 0	1290.8	32
298.15 K, x2 = 0.2042	–	24
298.15 K, x2 = 0.205	1283.85	–
298.15 K, x2 = 0.3952	–	18
298.15 K, x2 = 0.3983	1275.26	–
298.15 K, x2 = 0.5808	1261.85	12
298.15 K, x2 = 0.7565	–	8
298.15 K, x2 = 0.7573	1231.95	–
298.15 K, x2 = 0.842	1200.76	–
298.15 K, x2 = 0.9256	1137.65	4
298.15 K, x2 = 0.9667	1077.55	–
298.15 K, x2 = 0.9912	1022.15	–
308.15 K, x2 = 0	1282.85	23
308.15 K, x2 = 0.2042	–	17
308.15 K, x2 = 0.205	1275.92	–
308.15 K, x2 = 0.3952	–	14
308.15 K, x2 = 0.3983	1267.29	–
308.15 K, x2 = 0.5808	1253.77	9
308.15 K, x2 = 0.7565	–	6
308.15 K, x2 = 0.7573	1223.66	–
308.15 K, x2 = 0.842	1192.57	–
308.15 K, x2 = 0.9256	1130.4	3
308.15 K, x2 = 0.9667	1072.06	–
308.15 K, x2 = 0.9912	1018.5	–
318.15 K, x2 = 0	1274.95	17
318.15 K, x2 = 0.2042	–	13
318.15 K, x2 = 0.205	1268.04	–
318.15 K, x2 = 0.3952	–	10
318.15 K, x2 = 0.3983	1259.34	–
318.15 K, x2 = 0.5808	1245.67	8
318.15 K, x2 = 0.7565	–	5
318.15 K, x2 = 0.7573	1215.3	–
318.15 K, x2 = 0.842	1184.27	–
318.15 K, x2 = 0.9256	1122.93	3
318.15 K, x2 = 0.9667	1066.08	–
318.15 K, x2 = 0.9912	1014.11	–
328.15 K, x2 = 0	1267.12	13
328.15 K, x2 = 0.2042	–	10
328.15 K, x2 = 0.205	1260.21	–
328.15 K, x2 = 0.3952	–	8
328.15 K, x2 = 0.3983	1251.41	–
328.15 K, x2 = 0.5808	1237.55	6
328.15 K, x2 = 0.7565	–	5
328.15 K, x2 = 0.7573	1206.84	–
328.15 K, x2 = 0.842	1175.86	–
328.15 K, x2 = 0.9256	1115.2	3
328.15 K, x2 = 0.9667	1059.66	–
328.15 K, x2 = 0.9912	1009.07	–
338.15 K, x2 = 0	1259.35	10
338.15 K, x2 = 0.2042	–	8
338.15 K, x2 = 0.205	1252.42	–
338.15 K, x2 = 0.3952	–	7
338.15 K, x2 = 0.3983	1243.49	–
338.15 K, x2 = 0.5808	1229.41	6
338.15 K, x2 = 0.7565	–	4
338.15 K, x2 = 0.7573	1198.32	–
338.15 K, x2 = 0.842	1167.33	–
338.15 K, x2 = 0.9256	1107.28	2
338.15 K, x2 = 0.9667	1052.83	–
338.15 K, x2 = 0.9912	1002.87	–
348.15 K, x2 = 0	1251.63	9
348.15 K, x2 = 0.2042	–	7
348.15 K, x2 = 0.205	1244.66	–
348.15 K, x2 = 0.3952	–	6
348.15 K, x2 = 0.3983	1235.59	–
348.15 K, x2 = 0.5808	1221.23	5
348.15 K, x2 = 0.7565	–	4
348.15 K, x2 = 0.7573	1189.98	–
348.15 K, x2 = 0.842	1158.69	–
348.15 K, x2 = 0.9256	1099.05	2
348.15 K, x2 = 0.9667	1045.56	–
348.15 K, x2 = 0.9912	997.23	–

CCn1cc[n+](C)c1.O=S(=O)([O-])C(F)(F)F [1-ethyl-3-methylimidazolium trifluoromethanesulfonate] + O
Conditions	mass density [kg/m3]	viscosity [mPa·s]
278.15 K, x2 = 0	1400.52	96
278.15 K, x2 = 0.2286	–	47
278.15 K, x2 = 0.2295	1388.3	–
278.15 K, x2 = 0.431	1372.38	–
278.15 K, x2 = 0.4324	–	28
278.15 K, x2 = 0.6157	1347.34	–
278.15 K, x2 = 0.6159	–	18
278.15 K, x2 = 0.7825	1299.91	–
278.15 K, x2 = 0.783	–	10
278.15 K, x2 = 0.8608	1254.76	–
278.15 K, x2 = 0.9352	–	5
278.15 K, x2 = 0.9353	1171.9	–
278.15 K, x2 = 0.9712	1097.49	–
278.15 K, x2 = 0.9924	1030.35	–
288.15 K, x2 = 0	1392.04	61
288.15 K, x2 = 0.2286	–	32
288.15 K, x2 = 0.2295	1379.81	–
288.15 K, x2 = 0.431	1363.87	–
288.15 K, x2 = 0.4324	–	20
288.15 K, x2 = 0.6157	1338.87	–
288.15 K, x2 = 0.6159	–	13
288.15 K, x2 = 0.7825	1291.74	–
288.15 K, x2 = 0.783	–	7
288.15 K, x2 = 0.8608	1247.16	–
288.15 K, x2 = 0.9352	–	4
288.15 K, x2 = 0.9353	1165.97	–
288.15 K, x2 = 0.9712	1093.64	–
288.15 K, x2 = 0.9924	1028.64	–
298.15 K, x2 = 0	1383.6	41
298.15 K, x2 = 0.2286	–	23
298.15 K, x2 = 0.2295	1371.36	–
298.15 K, x2 = 0.431	1355.39	–
298.15 K, x2 = 0.4324	–	15
298.15 K, x2 = 0.6157	1330.37	–
298.15 K, x2 = 0.6159	–	10
298.15 K, x2 = 0.7825	1283.47	–
298.15 K, x2 = 0.783	–	6
298.15 K, x2 = 0.8608	1239.38	–
298.15 K, x2 = 0.9352	–	3
298.15 K, x2 = 0.9353	1159.65	–
298.15 K, x2 = 0.9712	1089.08	–
298.15 K, x2 = 0.9924	1025.88	–
308.15 K, x2 = 0	1375.22	29
308.15 K, x2 = 0.2286	–	17
308.15 K, x2 = 0.2295	1362.95	–
308.15 K, x2 = 0.431	1346.93	–
308.15 K, x2 = 0.4324	–	12
308.15 K, x2 = 0.6157	1321.86	–
308.15 K, x2 = 0.6159	–	8
308.15 K, x2 = 0.7825	1275.1	–
308.15 K, x2 = 0.783	–	5
308.15 K, x2 = 0.8608	1231.42	–
308.15 K, x2 = 0.9352	–	3
308.15 K, x2 = 0.9353	1152.94	–
308.15 K, x2 = 0.9712	1083.9	–
308.15 K, x2 = 0.9924	1022.24	–
318.15 K, x2 = 0	1366.9	21
318.15 K, x2 = 0.2286	–	13
318.15 K, x2 = 0.2295	1354.59	–
318.15 K, x2 = 0.431	1338.49	–
318.15 K, x2 = 0.4324	–	10
318.15 K, x2 = 0.6157	1313.33	–
318.15 K, x2 = 0.6159	–	7
318.15 K, x2 = 0.7825	1266.62	–
318.15 K, x2 = 0.783	–	4
318.15 K, x2 = 0.8608	1223.27	–
318.15 K, x2 = 0.9352	–	3
318.15 K, x2 = 0.9353	1145.88	–
318.15 K, x2 = 0.9712	1078.18	–
318.15 K, x2 = 0.9924	1017.86	–
328.15 K, x2 = 0	1358.63	16
328.15 K, x2 = 0.2286	–	10
328.15 K, x2 = 0.2295	1346.27	–
328.15 K, x2 = 0.431	1330.07	–
328.15 K, x2 = 0.4324	–	8
328.15 K, x2 = 0.6157	1304.78	–
328.15 K, x2 = 0.6159	–	6
328.15 K, x2 = 0.7825	1258.04	–
328.15 K, x2 = 0.783	–	4
328.15 K, x2 = 0.8608	1214.94	–
328.15 K, x2 = 0.9352	–	3
328.15 K, x2 = 0.9353	1138.49	–
328.15 K, x2 = 0.9712	1071.95	–
328.15 K, x2 = 0.9924	1012.83	–
338.15 K, x2 = 0	1350.43	13
338.15 K, x2 = 0.2286	–	9
338.15 K, x2 = 0.2295	1338.01	–
338.15 K, x2 = 0.431	1321.68	–
338.15 K, x2 = 0.4324	–	7
338.15 K, x2 = 0.6157	1296.19	–
338.15 K, x2 = 0.6159	–	5
338.15 K, x2 = 0.7825	1249.35	–
338.15 K, x2 = 0.783	–	4
338.15 K, x2 = 0.8608	1206.43	–
338.15 K, x2 = 0.9352	–	2
338.15 K, x2 = 0.9353	1130.76	–
338.15 K, x2 = 0.9712	1065.25	–
338.15 K, x2 = 0.9924	1007.21	–
348.15 K, x2 = 0	1342.3	11
348.15 K, x2 = 0.2286	–	7
348.15 K, x2 = 0.2295	1329.77	–
348.15 K, x2 = 0.431	1313.29	–
348.15 K, x2 = 0.4324	–	6
348.15 K, x2 = 0.6157	1287.58	–
348.15 K, x2 = 0.6159	–	5
348.15 K, x2 = 0.7825	1240.55	–
348.15 K, x2 = 0.783	–	3
348.15 K, x2 = 0.8608	1197.74	–
348.15 K, x2 = 0.9352	–	2
348.15 K, x2 = 0.9353	1122.73	–
348.15 K, x2 = 0.9712	1058.13	–
348.15 K, x2 = 0.9924	1001.05	–
